The target of test [1] is T1, angiotensin-converting enzyme of rabbit lung (Oryctolagus cuniculus, UniProt P12822).
T1 construct: isolated angiotensin converting enzyme from rabbit lungs; from tissue; host or cells: rabbit lung
T1 sequence (P12822 34-1310): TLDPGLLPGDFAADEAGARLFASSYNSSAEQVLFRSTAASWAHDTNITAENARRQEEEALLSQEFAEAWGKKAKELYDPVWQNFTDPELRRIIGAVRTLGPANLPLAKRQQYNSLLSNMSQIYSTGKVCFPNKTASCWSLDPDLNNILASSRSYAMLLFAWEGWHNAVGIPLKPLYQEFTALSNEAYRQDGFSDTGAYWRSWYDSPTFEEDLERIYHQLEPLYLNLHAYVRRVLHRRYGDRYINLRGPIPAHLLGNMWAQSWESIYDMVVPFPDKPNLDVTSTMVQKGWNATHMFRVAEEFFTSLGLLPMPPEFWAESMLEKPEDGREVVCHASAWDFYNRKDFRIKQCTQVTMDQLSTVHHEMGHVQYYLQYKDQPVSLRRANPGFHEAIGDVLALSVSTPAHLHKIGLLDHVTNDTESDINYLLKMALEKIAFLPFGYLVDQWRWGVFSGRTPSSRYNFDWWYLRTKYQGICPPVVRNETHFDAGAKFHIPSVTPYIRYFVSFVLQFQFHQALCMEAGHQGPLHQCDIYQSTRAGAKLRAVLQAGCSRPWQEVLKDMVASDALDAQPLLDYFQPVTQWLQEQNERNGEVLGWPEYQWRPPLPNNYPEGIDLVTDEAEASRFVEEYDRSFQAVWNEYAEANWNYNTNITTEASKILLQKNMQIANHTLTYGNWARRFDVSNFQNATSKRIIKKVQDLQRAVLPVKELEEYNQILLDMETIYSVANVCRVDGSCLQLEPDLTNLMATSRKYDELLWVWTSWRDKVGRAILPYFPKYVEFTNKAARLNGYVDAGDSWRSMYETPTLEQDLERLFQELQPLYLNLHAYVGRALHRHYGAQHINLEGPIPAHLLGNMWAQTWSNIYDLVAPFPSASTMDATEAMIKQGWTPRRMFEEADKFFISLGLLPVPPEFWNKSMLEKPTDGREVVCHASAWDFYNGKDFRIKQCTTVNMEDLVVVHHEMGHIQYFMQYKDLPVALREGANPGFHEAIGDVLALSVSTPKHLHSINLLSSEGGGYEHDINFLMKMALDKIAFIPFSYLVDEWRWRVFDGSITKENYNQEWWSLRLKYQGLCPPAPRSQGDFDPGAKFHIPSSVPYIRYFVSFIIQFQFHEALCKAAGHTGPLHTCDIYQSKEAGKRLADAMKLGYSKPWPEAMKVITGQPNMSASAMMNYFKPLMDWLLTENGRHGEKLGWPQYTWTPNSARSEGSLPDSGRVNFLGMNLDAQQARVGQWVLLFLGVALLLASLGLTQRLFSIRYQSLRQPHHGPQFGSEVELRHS
Kind of test: Inhibition of isolated angiotensin-converting enzyme of rabbit lung (cleavage of hippuryl-L-histidyl-L-leucine). The class given is biochemical. The note with it: 5 mM hippuryl-L-histidyl-L-leucine, pH 8.3, 30 minutes at 37° C., read-out: I50 (concentration producing a 50% inhibition of angiotensin-converting enzyme) (converted). The text has this: Although conversion of angiotensin I to angiotensin II by angiotensin-converting enzyme is probably the reaction of most importance in the pathology of hypertension, the activity of the isolated enzyme is more conveniently and accurately assayed by measuring its rate of cleavage of a simpler peptide substrate, hippuryl-L-histidyl-L-leucine. […] Controls containing no inhibitor (100% activity), and those acidified before addition of the enzyme (0% activity) are similarly prepared. All of the enzymatic reations are initiated by addition of the enzyme component; tubes are incubated for 30 minutes at 37° C.; and reactions are terminated by addition of 0.25 ml. of 1 N HCl. The hippuric acid formed by action of angiotensin-converting enzyme on hippuryl-L-histidyl-L-leucine is extracted into ethyl acetate, evaporated to dryness, redissolved in water and quantitated from its absorbance at 228 nm. The percent inhibition by each concentration of compound is calculated by comparison with the 0% and 100% activity controls.

Test [2] concerns angiotensin I converting enzyme in excised guinea pig ileum. Kind of test: Inhibition of angiotensin I converting enzyme in excised guinea pig ileum (contractile activity of angiotensin I). The format is cell-based. As to conditions: Cavia porcellus, Krebs solution at 37°, angiotensin I added after two minutes, read-out: IC50 (inhibition of the contractile activity of angiotensin I by 50%). On the procedure:
After two minutes, angiotensin I ([…]) is added and the isotonic contractions are measured.

Test [3] has as its system normotensive rats. As to conditions: Ripa 1970; cited from earlier work.
Test [4] has as its system anesthetized normotensive rats. As to conditions: intravenous injection, Schulze 1972; cited from earlier work.
The conditions of test [5]: Fujimura et al. 1964; cited from earlier work.
Test [6] relates to angiotensin I pressor response. Nature of the test: Inhibition of angiotensin I pressor response in unanesthetized rats after oral administration. The class given is in vivo, rats of the Sprague-Dawley strain. As to conditions: unanesthetized male Sprague-Dawley rats, 0.31 μg/kg angiotensin I, 2 animals. On the procedure:
A representative compound of the present invention administered orally at doses of 10 and 100 mg/kg to unanesthetized male rats of the Sprague-Dawley strain weighing about 200 g., followed by an injection of 0.31 μg/kg of angiotensin I, indicates the following degree of inhibition obtained.

SMILES strings stand for the structures. ≈ marks a conversion by molar mass, not a printed value. Non-standard residues stand in square brackets, D forms with d. Residues, ends and D or L forms follow the SMILES beside them.

Regarding `CC(=O)NC(CSC(C)=O)C(=O)N1CCC[C@H]1C(=O)O` (mixture of isomers) [N,S-Diacetyl-DL-cysteinyl-L-proline], the IC50 was 72.8 µM in test [1] and 23 µg/mL in test [2].
With `CC(=O)NC(CS)C(=O)N1CCC[C@H]1C(=O)O` (mixture of isomers) [N-Acetyl-DL-cysteinyl-L-proline], the IC50 in test [1] was 1.15 µM; in test [2], 0.6 µg/mL.
Take `NCCCC(CS)C(=O)N1CCC[C@H]1C(=O)O` (mixture of isomers) [1-(5-Amino-2-mercaptomethylpentanoyl)-L-proline]: the IC50 in test [1] is 0.0691 µM; in test [2], 0.47 µg/mL (≈ 1.81 µM).
With `CC(S)C(=O)NCC(=O)O` (stereo not shown) [2-mercaptopropionyl-glycine], in test [3], the angiotensinogen entry is given as “increases angiotensinogen” and the renin blood levels result is “lowers renin blood levels”. Also, the “lowering of the blood pressure” value in test [4] was “produced lowering of the blood pressure”. For the same compound, the “effects on blood pressure” value in test [5] is given as “no noticeable effects on blood pressure”.
Consider `N[C@H](CS)C(=O)N1CCC[C@H]1C(=O)O` [D-Cysteinyl-L-proline] (H-[dC]-Pro-OH), for which the IC50 was 0.596 µM in test [1] and 0.05 µg/mL (≈ 0.229 µM) in test [2]. Besides, the entries for the “% maximum inhibition of angiotensin I pressor response” value in test [6] (10 mg/kg orally) and in test [6] (100 mg/kg orally) were 62% and 95%, respectively.
With `N[C@@H](CS)C(=O)N1CCC[C@H]1C(=O)O` [L-Cysteinyl-L-proline] (H-Cys-Pro-OH), the results for the IC50 in test [1] and in test [2] were 36.7 µM and 23 µg/mL (≈ 105 µM), respectively.

Values taken from patent US4177277A, “Method for alleviating hypertension” (E. R. Squibb & Sons, Inc., priority 1978, dated 1979).
